# Measured values as given in the OligoGym collection.
# Several values for one entry are separate records, joined by “and”; a condition that tells them apart may be missing. Equal entries are not always repeated. After the bases stand the sugars from the 5' end (letter, count) and the backbone: PS all phosphorothioate, else s phosphorothioate and o phosphodiester by linkage. Methylation of C is not given here. k = constrained ethyl (cEt); d = 2'-deoxy (DNA)
# Target: IRF4
# Details: ASO, SK-MEL-28, 4 µM
row,Sequence,target mRNA inhibition
1,"TAGTCGACAGCTAAAG (sugars k3 d10 k3, PS)",46%
2,"CTGCGGGTCCTCCAGG (sugars k3 d10 k3, PS)",20%
3,"TGGTAGGTAGGCACCT (sugars k3 d10 k3, PS)",35%
4,"TAGCAGAGGTTCTACG (sugars k3 d10 k3, PS)",24%
5,"AGTCACCTGGAATCTT (sugars k3 d10 k3, PS)",47%
6,"ATGAGAAACGGCCTGG (sugars k3 d10 k3, PS)",64%
7,"GCATCTAAGGCAAGCT (sugars k3 d10 k3, PS)",34%
8,"CTGCATCGAGATCAGT (sugars k3 d10 k3, PS)",52%
9,"CCTGTCACCTGGCAAC (sugars k3 d10 k3, PS)",41%
10,"ACCTGCTGGCAGTTCT (sugars k3 d10 k3, PS)",61%
11,"AAACAGGAACTGACCT (sugars k3 d10 k3, PS)",20%
12,"TGCAAAACCAGTACAG (sugars k3 d10 k3, PS)",28%
13,"ATATAGTTGTCTGGCT (sugars k3 d10 k3, PS)",41%
14,"CTCGGCCGCCGCCCTC (sugars k3 d10 k3, PS)",37%
15,"TAGTGTCGCCATGGCT (sugars k3 d10 k3, PS)",69%
16,"TAAAAGGTTCCTGTCA (sugars k4 d8 k4, PS)",43%
17,"TCCTATGCTGAACCCC (sugars k3 d10 k3, PS)",36%
18,"CCAAATGACTTAGTCA (sugars k3 d10 k3, PS)",51%
19,"ATCTGGATGAGCTTAC (sugars k3 d10 k3, PS)",38%
20,"TTCAAGAGGAACTAGT (sugars k3 d10 k3, PS)",6%
21,"GTTCATATCACAGAGC (sugars k3 d10 k3, PS)",45%

row,Sequence,target mRNA inhibition
1,"ACAAGAACTGCTGTGT (sugars k3 d10 k3, PS)",7%
2,"CTGCATGAAAGTGTGT (sugars k3 d10 k3, PS)",56%
3,"ATAAACACCCCTTCTT (sugars k3 d10 k3, PS)",30%
4,"AAGAGGTGCGAGTACC (sugars k3 d10 k3, PS)",34%
5,"CTTATTAGACTGACAG (sugars k3 d10 k3, PS)",41%
6,"CCATATACATTGAGGC (sugars k3 d10 k3, PS)",44%
7,"TGATGTATACCAACGA (sugars k3 d10 k3, PS)",62% and 87%
8,"ACAGCATAGCATTATC (sugars k3 d10 k3, PS)",64%
9,"AAAGTAACTGACACGC (sugars k3 d10 k3, PS)",67%
10,"CCAAAGGCTCCCGACA (sugars k3 d10 k3, PS)",29%
11,"GCACAGACATACCTAC (sugars k3 d10 k3, PS)",46%
12,"CCGACACGCGCCGCTC (sugars k3 d10 k3, PS)",30%
13,"GTAAACTTGGCTGTGG (sugars k3 d10 k3, PS)",18%
14,"TGTATTTATGCCCTCG (sugars k3 d10 k3, PS)",44%
15,"AACAGTAAGAGGGCAG (sugars k3 d10 k3, PS)",63%
16,"TGGGAGTAATAGTAAA (sugars k3 d10 k3, PS)",16%
17,"CTGCAGGGTAATTTAG (sugars k3 d10 k3, PS)",34%
18,"CTATAATTGGCACGAG (sugars k3 d10 k3, PS)",63%
19,"ACCCACGGACGGAGGC (sugars k3 d10 k3, PS)",-9%
20,"GCAGAGCAATTTACAT (sugars k3 d10 k3, PS)",66%
21,"TCAGCAAGTGTCTTCC (sugars k3 d10 k3, PS)",66%

row,Sequence,target mRNA inhibition
1,"GGAGATATTAATTACT (sugars k3 d10 k3, PS)",50%
2,"AGAAACCCTCATCACC (sugars k3 d10 k3, PS)",-5%
3,"TTGCATCTATAAGATG (sugars k3 d10 k3, PS)",31%
4,"TTAAGCTAAACTCCTA (sugars k3 d10 k3, PS)",10%
5,"AATAAGCAGAAACAGC (sugars k4 d8 k4, PS)",39%
6,"AAAATATAACGGTGTT (sugars k3 d10 k3, PS)",31%
7,"TCAAAGCGCACCGCAG (sugars k3 d10 k3, PS)",43%
8,"GGGCATGTAAAACATA (sugars k3 d10 k3, PS)",23%
9,"AGCATTATCTACCTCA (sugars k3 d10 k3, PS)",78%
10,"ATATAGAATTAGGTGC (sugars k3 d10 k3, PS)",16%
11,"ACAGATAACGAGGTGC (sugars k3 d10 k3, PS)",30%
12,"AAGTACTTGGACAGAA (sugars k3 d10 k3, PS)",54%
13,"CATACCTACAAGCAGT (sugars k3 d10 k3, PS)",43%
14,"CAAACCCTACTGGGTA (sugars k3 d10 k3, PS)",32%
15,"GAGCATCAACAAAGCC (sugars k3 d10 k3, PS)",58%
16,"CCCTAGATAACATGAG (sugars k3 d10 k3, PS)",17%
17,"TTTTACCTGGTATTGC (sugars k3 d10 k3, PS)",-2%
18,"GGGAGATCCGGCAGCC (sugars k3 d10 k3, PS)",-10%
19,"ATCGAATCTGCCCAAA (sugars k3 d10 k3, PS)",26%
